The values below come from patent publication US20260191189A1, “CALCIFEROLS TO REDUCE ENVIRONMENTAL IMPACT OF RODENTICIDES” (priority 2021, published 2026).

The conditions of series [1]: Sprague-Dawley rats, oral administration of 3.0 mg/kg; cited from earlier work.
The conditions of series [2]: cited from earlier work.
In series [3] the test system is rats (Rattus norvegicus). As to the kind of experiment: Lab test of stop feeding effect (choice feeding test). The series is classed as in vivo. Particulars: 100 mg/kg of calciferol. The source says: A lab trial was set up to test the stop-feeding effect induced by calciferol-containing bait in the absence of an anticoagulant rodenticide. Three groups (Group control, Group a, and Group b) of ten rats (Rattus norvegicus) each were subjected to the experiment. The control group and Group a consisted of male rats; Group b consisted of female rats. The groups were kept in three connected pens (20 cm×60 cm) with shelter, saw-dust, water and feed ad libitum under standard laboratory conditions. The rats acclimatized in the test setup for ten days, with standard lab chew ad libitum.
The test-bait formulation was a paste-bait, based on vegetable fat and cereal flour, and contained cholecalciferol at 100 mg/kg. During the choice feeding test, the rats of both treatment groups (a and b) received the cholecalciferol-containing bait and the challenge diet (standard rat chew; Höveler, Germany) ad libitum. The control group received the same bait as the treatment groups but without cholecalciferol, and the challenge diet. Consumption of bait and challenge diet was recorded in all groups daily for 14 days. The daily bait consumption results are depicted in FIG. 1.
FIG. 1 depicts the daily consumption of bait (grams) in the laboratory study of Experiment 1, where three groups of rats (n=10 each) were given a choice between standard lab diet, and bait with or without cholecalciferol (100 mg/kg). […]

Series [4] concerns rats and mice. The note with it: cited from earlier work.
Series [5] relates to rats or mice. Particulars: in rodenticide bait, alone or combined with warfarin; cited from earlier work.

In the case of `O=c1oc2ccccc2c(O)c1C1CC(c2ccc(-c3ccc(Br)cc3)cc2)Cc2ccccc21` (single isomer, unassigned) [trans-isomer of brodifacoum], the liver half-life in series [1] is 68.73 h.
On to `O=c1oc2ccccc2c(O)c1C1CCCc2ccccc21` (stereo not shown) [coumatetralyl, 4-Hydroxy-3-(1,2,3,4-tetrahydro-1-naphthyl) coumarin], for which the plasma half-life in series [2] was 0.52 days.
`O=c1oc2ccccc2c(O)c1C1CC(c2ccc(-c3ccc(Br)cc3)cc2)Cc2ccccc21` (stereo not shown) [brodifacoum, 3-[3-[4-(4-bromophenyl)phenyl]-1,2,3,4-tetrahydronaphthalen-1-yl]-4-hydroxychromen-2-one]: the “half-life in the liver” value in series [2] (liver) is recorded as 307.4 days. Also, the plasma half-life in series [2] is on record as 91.7 days.
Regarding `C=C1CC[C@H](O)C/C1=C/C=C1\CCC[C@]2(C)[C@@H]([C@H](C)/C=C/[C@H](C)C(C)C)CC[C@@H]12` [calciferol], in series [3], the stop feeding effect entry was “significant stop feeding effect within two days”. Also, the “acute oral LD50” value in series [4] is 30 to 100 mg/kg. Moreover, the “minimum concentration likely to give good results in the field” value in series [5] is reported as 0.1%.
For the compound `O=c1oc2ccccc2c(O)c1[C@@H]1C[C@@H](c2ccc(OCc3ccc(C(F)(F)F)cc3)cc2)Cc2ccccc21` (single isomer, unassigned) [cis-isomer of flocoumafen], the liver half-life in series [1] was 76.73 h.
In the case of `O=c1oc2ccccc2c(O)c1C(CC(O)c1ccc(-c2ccc(Br)cc2)cc1)c1ccccc1` (single isomer, unassigned) [cis-isomer of bromadiolone], in series [1], the liver half-life is 26.89 h.
On to `O=c1oc2ccccc2c(O)c1[C@@H]1Cc2ccccc2[C@H](c2ccc(-c3ccc(Br)cc3)cc2)C1` (single isomer, unassigned) [cis-isomer of brodifacoum], for which the liver half-life in series [1] was 120.82 h.
